Source: PubChem BioAssay (NCI)
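Five concentrations, 48 hours, 96-well plates. GI50 marks 50% less growth. TGI is the concentration that stops growth completely.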

Experiments:
Test in all cases: DTP human tumour cell line panel, 48 h
[1] = test system: COLO 205 colon
[2] = test system: TK-10 renal
[3] = test system: NCI-H23 lung
[4] = test system: HCC-2998 colon
[5] = test system: EKVX NSCLC
[6] = test system: NCI-H226 lung
[7] = test system: UACC-257 melanoma
[8] = test system: SK-MEL-28 melanoma
[9] = test system: SF-295 CNS
[10] = test system: HT29 colon
[11] = test system: SNB-19 CNS
[12] = test system: 786-0 renal
[13] = test system: IGROV1 ovarian
[14] = test system: HOP-62 NSCLC
[15] = test system: NCI-H522 lung
[16] = test system: K-562 leukemia
[17] = test system: MALME-3M melanoma
[18] = test system: OVCAR-3 ovarian
[19] = test system: SW-620 colon
[20] = test system: ACHN renal
[21] = test system: SF-268 CNS
[22] = test system: A549 NSCLC
[23] = test system: M14 melanoma
[24] = test system: SN12C renal
[25] = test system: HS 578T breast
[26] = test system: DU-145 prostate
[27] = test system: MCF7 breast
[28] = test system: SR leukemia
[29] = test system: CCRF-CEM leukemia
[30] = test system: LOX IMVI melanoma
[31] = test system: OVCAR-8 ovarian
[32] = test system: MOLT-4 leukemia
[33] = test system: T-47D breast
[34] = test system: HOP-92 NSCLC
[35] = test system: OVCAR-4 ovarian
[36] = test system: SK-MEL-5 melanoma
[37] = test system: SK-OV-3 ovarian
[38] = test system: HCT-15 colon
[39] = test system: MDA-MB-231 breast
[40] = test system: OVCAR-5 ovarian
[41] = test system: RPMI-8226 leukemia
[42] = test system: PC-3 prostate
[43] = test system: U251 CNS
[44] = test system: HCT-116 colon
[45] = test system: SK-MEL-2 melanoma
[46] = test system: NCI/ADR-RES ovarian
[47] = test system: NCI-H460 lung
[48] = test system: MDA-MB-435
[49] = test system: KM12 colon
[50] = test system: UO-31 renal
[51] = test system: UACC-62 melanoma
[52] = test system: CAKI-1 renal
[53] = test system: SNB-75 CNS
[54] = test system: RXF 393 renal
[55] = test system: A498 renal
[56] = test system: SF-539 CNS
[57] = test system: HL-60(TB) leukemia

O=C(Cn1c(=O)c(-c2ccccc2)nc2ccccc21)c1cccnc1
GI50 [1]: > 100 µM | TGI [1]: > 100 µM | GI50 [2]: > 100 µM | TGI [2]: > 100 µM | GI50 [3]: > 100 µM | TGI [3]: > 100 µM | GI50 [4]: > 100 µM | TGI [4]: > 100 µM | GI50 [5]: > 100 µM | TGI [5]: > 100 µM | GI50 [6]: > 100 µM | TGI [6]: > 100 µM | GI50 [7]: > 100 µM | TGI [7]: > 100 µM | GI50 [8]: > 100 µM | TGI [8]: > 100 µM | GI50 [9]: > 100 µM | TGI [9]: > 100 µM | GI50 [10]: > 100 µM | TGI [10]: > 100 µM | GI50 [11]: > 100 µM | TGI [11]: > 100 µM | GI50 [12]: > 100 µM | TGI [12]: > 100 µM | GI50 [13]: > 100 µM | TGI [13]: > 100 µM | GI50 [14]: > 100 µM | TGI [14]: > 100 µM | GI50 [15]: > 100 µM | TGI [15]: > 100 µM | GI50 [16]: > 100 µM | TGI [16]: > 100 µM | GI50 [17]: > 100 µM | TGI [17]: > 100 µM | GI50 [18]: > 100 µM | TGI [18]: > 100 µM | GI50 [19]: > 100 µM | TGI [19]: > 100 µM | GI50 [20]: > 100 µM | TGI [20]: > 100 µM | GI50 [21]: > 100 µM | TGI [21]: > 100 µM | GI50 [22]: > 100 µM | TGI [22]: > 100 µM | GI50 [23]: > 100 µM | TGI [23]: > 100 µM | GI50 [24]: > 100 µM | TGI [24]: > 100 µM | GI50 [25]: > 100 µM | TGI [25]: > 100 µM | GI50 [26]: > 100 µM | TGI [26]: > 100 µM | GI50 [27]: > 100 µM | TGI [27]: > 100 µM | GI50 [28]: > 100 µM | TGI [28]: > 100 µM | GI50 [29]: > 100 µM | TGI [29]: > 100 µM | GI50 [30]: > 100 µM | TGI [30]: > 100 µM | GI50 [31]: > 100 µM | TGI [31]: > 100 µM | GI50 [32]: > 100 µM | TGI [32]: > 100 µM | GI50 [33]: > 100 µM | TGI [33]: > 100 µM | GI50 [34]: 27.7 µM | TGI [34]: > 100 µM | GI50 [35]: 46.2 µM | TGI [35]: > 100 µM | GI50 [36]: > 100 µM | TGI [36]: > 100 µM | GI50 [37]: > 100 µM | TGI [37]: > 100 µM | GI50 [38]: > 100 µM | TGI [38]: > 100 µM | GI50 [39]: > 100 µM | TGI [39]: > 100 µM | GI50 [40]: > 100 µM | TGI [40]: > 100 µM | GI50 [41]: > 100 µM | TGI [41]: > 100 µM | GI50 [42]: > 100 µM | TGI [42]: > 100 µM | GI50 [43]: > 100 µM | TGI [43]: > 100 µM | GI50 [44]: > 100 µM | TGI [44]: > 100 µM | GI50 [45]: > 100 µM | TGI [45]: > 100 µM | GI50 [46]: > 100 µM | TGI [46]: > 100 µM | GI50 [47]: > 100 µM | TGI [47]: > 100 µM | GI50 [48]: > 100 µM | TGI [48]: > 100 µM | GI50 [49]: > 100 µM | TGI [49]: > 100 µM | GI50 [50]: > 100 µM | TGI [50]: > 100 µM | GI50 [51]: > 100 µM | TGI [51]: > 100 µM | GI50 [52]: > 100 µM | TGI [52]: > 100 µM

COc1ccc(C2=CC(c3cc(OC)c(OC)c(OC)c3)NC(=O)N2)cc1OC (stereo unspecified)
GI50 [1]: 2.65 µM | TGI [1]: 6.69 µM | GI50 [2]: 4.48 µM | TGI [2]: 41.2 µM | GI50 [3]: 3.48 µM | TGI [3]: 17.5 µM | GI50 [4]: 3.77 µM | TGI [4]: 12.6 µM | GI50 [5]: 2.85 µM | TGI [5]: 23.2 µM | GI50 [6]: 8.4 µM | TGI [6]: > 100 µM | GI50 [7]: 10.8 µM | TGI [7]: 23.2 µM | GI50 [8]: 6.97 µM | TGI [8]: 20.5 µM | GI50 [9]: 2.34 µM | TGI [9]: 7.87 µM | GI50 [10]: 4.05 µM | TGI [10]: 15.1 µM | GI50 [11]: 4.73 µM | TGI [11]: 17 µM | GI50 [12]: 4.65 µM | TGI [12]: 15.6 µM | GI50 [13]: 3.8 µM | TGI [13]: 20.4 µM | GI50 [14]: 3.99 µM | TGI [14]: 19.8 µM | GI50 [15]: 2.78 µM | TGI [15]: 11.2 µM | GI50 [53]: 2.42 µM | TGI [53]: 7.95 µM | GI50 [16]: 1.96 µM | TGI [16]: 24.5 µM | GI50 [17]: 5.06 µM | TGI [17]: 21.1 µM | GI50 [18]: 2.13 µM | TGI [18]: 5.05 µM | GI50 [19]: 2.96 µM | TGI [19]: 10.2 µM | GI50 [20]: 3.5 µM | TGI [20]: 43.6 µM | GI50 [54]: 3.04 µM | TGI [54]: 12.7 µM | GI50 [21]: 3.46 µM | TGI [21]: 14.5 µM | GI50 [22]: 4.74 µM | TGI [22]: > 100 µM | GI50 [23]: 3.59 µM | TGI [23]: 11.5 µM | GI50 [24]: 2.42 µM | TGI [24]: 8.33 µM | GI50 [26]: 1.9 µM | TGI [26]: 4.45 µM | GI50 [27]: 4.26 µM | TGI [27]: 14.8 µM | GI50 [28]: 2.11 µM | TGI [28]: 10.4 µM | GI50 [29]: 2.65 µM | TGI [29]: 11 µM | GI50 [30]: 3.05 µM | TGI [30]: 11.7 µM | GI50 [31]: 4.25 µM | TGI [31]: > 100 µM | GI50 [32]: 2.41 µM | TGI [32]: 12.5 µM | GI50 [33]: 2.63 µM | TGI [33]: 28.9 µM | GI50 [34]: 12.5 µM | TGI [34]: > 100 µM | GI50 [35]: 3.61 µM | TGI [35]: > 100 µM | GI50 [36]: 4.41 µM | TGI [36]: 16.5 µM | GI50 [37]: 3.67 µM | TGI [37]: > 100 µM | GI50 [38]: 2.9 µM | TGI [38]: 17.7 µM | GI50 [39]: 2.84 µM | TGI [39]: 8.04 µM | GI50 [55]: 1.83 µM | TGI [55]: 8.32 µM | GI50 [40]: 2.28 µM | TGI [40]: 6.42 µM | GI50 [41]: 3.03 µM | TGI [41]: 19.3 µM | GI50 [42]: 10.2 µM | TGI [42]: > 100 µM | GI50 [43]: 3.82 µM | TGI [43]: 14.1 µM | GI50 [56]: 2.28 µM | TGI [56]: 5.94 µM | GI50 [44]: 3.17 µM | TGI [44]: 11.1 µM | GI50 [57]: 1.57 µM | TGI [57]: 6.52 µM | GI50 [45]: 4.96 µM | TGI [45]: 24.3 µM | GI50 [46]: 3.02 µM | TGI [46]: > 100 µM | GI50 [47]: 1.92 µM | TGI [47]: 5 µM | GI50 [48]: 3.1 µM | TGI [48]: 16.9 µM | GI50 [49]: 2.25 µM | TGI [49]: 6.12 µM | GI50 [50]: 2.54 µM | TGI [50]: 12.8 µM | GI50 [51]: 4.31 µM | TGI [51]: 16.8 µM | GI50 [52]: 2.26 µM | TGI [52]: 9.32 µM
